Experimental data published in US20190328721A1, “METHOD OF ACTIVATING DENDRITIC CELLS” (KOREA INSTITUTE OF SCIENCE AND TECHNOLOGY, priority 2018, published 2019).

Assays:
[1] = test system: bone marrow-derived macrophages (BMDMs); experiment: Phagocytosis of cancer cells by bone marrow-derived macrophages in vitro; assay type: cell-based, mice
Protocol: (§1) Specifically, the present inventors prepared bone marrow-derived macrophages (BMDMs) differentiated from excised bone marrow of mice using M-CSF and bone marrow-derived dendritic cells (BMDCs) differentiated from excised bone marrow using Flt3L. The degree of differentiation was confirmed by flow cytometry analysis using antibodies specifically binding to F4/80 (BMDM marker) and CD11c (BMDC marker), respectively (FIGS. 2A and 2B).
(§2) The prepared BMDMs and BMDCs were stained with 1 μM CellTracker Deep Red (Thermo Fisher Scientific, USA). 30 μM of Y27632 (Abcam, USA) or 30 μM of fasudil (Selleck Chemicals, USA) was added to each of 15×10^4 cells/ml of the stained macrophages and dendritic cells and incubated at 37° C. for 1 hour. As a negative control, macrophages or dendritic cells that were not incubated with Y27632 and fasudil were used.
(§3) Bone marrow-derived macrophages or dendritic cells prepared in RPMI medium and cancer cell lines stained with 1 μM CellTracker CMFDA (Thermo Fisher Scientific, USA) were co-cultured at about 37° C. for about 2 hours. CT26.CL25, a colon cancer cell line, and B16F10-OVA, a melanoma cell line, were used as the cancer cells.
(§4) Thereafter, the percentage of cancer cells was measured by flow cytometry, and the phagocytosis ratio of macrophages and dendritic cells against cancer cells was calculated. The results are shown in FIGS. 2C to 2F (left: cancer cell line CT26.CL25, right: cancer cell line B16F10-OVA).
(§5) In order to more accurately analyze the phagocytosis of macrophages and dendritic cells against cancer cells according to the treatment of the ROCK inhibitor, the present inventors analyzed phagocytosis of the BMDMs and BMDCs against CT26.CL25 colon cancer cells using the pHrodo-SE dye, which changes in fluorescence depending on pH. When […], the pH of the cancer cells decreased and became red. When treated with Y27632 as described above for the above-mentioned phagocytosis response, the phagocytic activities of both the BMDMs and BMDCs against cancer cells were improved.
(§6) The present inventors performed an experiment to confirm how long the phagocytosis of BMDMs and BMDCs against cancer cells due to the ROCK inhibitor is maintained. Specifically, BMDMs and BMDCs were pretreated with Y27632 for 1 hour, then Y27632 was removed, and immediately after 30 minutes, 1 hour, 2 hours, or 4 hours, the phagocytosis against CT26.CL25 and B16F10-Ova was measured using a flow cytometer. The other experimental conditions were the same as in Example 1-1.
(§7) In order to confirm whether the ROCK inhibitor increases phagocytosis against cancer cells by acting on phagocytic cells (BMDMs or BMDCs) themselves, Y27632 was used to pretreat the phagocytic cells or cancer cells for 1 hour, and the phagocytic activity was analyzed using the same procedure described in Example 1-1.
The present inventors identified through the above-mentioned results that Y27632 promotes phagocytic cells against cancer cells by inhibiting ROCK in the phagocytic cells. In order to elucidate a more detailed mechanism related to the increase of phagocytic activity by ROCK inhibitors, the present inventors analyzed phagocytosis of the phagocytic cells against cancer cells using blebbistatin (Sigma-Aldrich, USA), which can inhibit the movement of myosin light chain, which exist downstream of ROCK signaling pathway, according to the method described in Example 1-1.
Bone marrow-derived macrophages (BMDMs) treated with 30 μM of fasudil were co-cultured with B16F10-Ova malignant melanoma cells for 1 hour and the phagocytic activity of the BMDMs against apoptotic cancer cells was analyzed by flow cytometry analysis. In order to induce immunogenic apoptosis, 2.5 μM mitoxantrone (Sigma-Aldrich, USA) was administered with B16F10-Ova cells stained with CellTracker Deep Red (Thermo Fisher Scientific, USA) for 4 hours. […]

[2] = test system: bone marrow-derived dendritic cells (BMDCs); experiment: Phagocytosis of cancer cells by bone marrow-derived dendritic cells in vitro; assay type: cell-based, mice; details: method of Example 1-1; CT26.CL25 and B16F10-Ova
Protocol: as §1, §2, §3, §4, §5, §6
as §7, with “1-1. […]” for “1-1.”
Phagocytic activity of bone marrow-derived dendritic cells (BMDCs) differentiated from bone marrow cells against cancer cells was analyzed by treating the BMDCs with ROCK inhibitor Y27632 (30 μM) for 1 hour and then co-cultivating with CT26.CL25 colon cancer cells pretreated with 25 μM of doxorubicin for 24 hours or B16F10-Ova malignant melanoma cells treated with 30 μM of Y27632 for 1 hour and then treated with 2.5 μM doxorubicin (Sigma-Aldrich, USA) for 24 hours by pHrodo SE (Thermo Fisher Scientific, USA) staining (BMDC:Dox-treated B16F10-Ova=1:1). As shown in FIGS. 16A to 16D, it was confirmed that the phagocytic activity of BMDCs induced by doxorubicin were increased in the Y27632-treated group compared to the control group (FIGS. 16A to 16D). […]

dendritic cells = experiment: Flow cytometry of dendritic cells from B16F10-Ova-bearing mice (maturation, subsets, cross presentation); assay type: in vivo; details: tumor-draining lymph nodes
Protocol: To confirm the effect of the ROCK inhibitor Y27632 on the maturation process of dendritic cells, the inventors administered Y27362 to B16F10-Ova-bearing cancer model animals according to the same administration schedule as in Example 2-1, and the expression of CD40 and CD86, which are dendritic cell maturation markers, was analyzed by flow cytometry.
Recently, it has been shown that CD103 (corresponding to CD141 in humans)-positive dendritic cells (CD103 DC) play an important role in cancer cell phagocytosis and T cell anticancer immunity among dendritic cells (Broz et al., Cancer Cell, 26 (5): 638-652, 2014). Therefore, in order to analyze the effect of the ROCK inhibitor on CD103 DC, Y27632 was administered to B16F10-Ova-bearing cancer model mice according to the administration schedule described in the above Example 2-1, tumor tissues and tumor-draining lymph nodes were excised, and then flow cytometry analysis was performed using antibodies specifically binding to dendritic cell markers (CD11b, CD103 and CD8). It was confirmed that the ratio of CD103 DC was increased by Y27632 in both the tumor-draining lymph nodes (FIG. 15A) and the tumor tissues (FIG. 15B). On the other hand, in the case of CD11b-positive and CD8-positive dendritic cells, no change due to administration of Y27632 was observed.
The present inventors analyzed cross presentation activity which is one of functions of dendritic cells via flow cytometry analysis using an antibody capable of detecting a cancer antigen (H-2K^b-Ova) capable of activating T cells, through flow cytometry analysis using an antibody (H-2K^b monoclonal antibody, Invitrogen, USA). It was confirmed that the cross presentation of CD103 DC was increased by Y27632 in both tumor-draining lymph nodes (FIG. 15C) and tumor tissues (FIG. 15D).
Further, the present inventors analyzed CD40, which is one of the markers of dendritic cell function capable of activating T cells and a DC maturation marker of dendritic cells, by flow cytometry analysis using anti-CD40 antibodies. As shown in FIGS. 15E and 15F, it was confirmed that the maturation of CD103 DC was increased by Y27632 in the tumor-draining lymph nodes.
The present inventors analyzed a series of immunological induction processes occurring after the phagocytosis against cancer cells or cancer-specific antigens in order to analyze the mechanism of the combination therapy for the anti-cancer immune response. Specifically, in order to confirm the effect of the combination therapy on the dendritic cell maturation, Y27632 and doxorubicin were administered to B16F10-Ova-bearing cancer model mice as described above, and then tumor-draining lymph nodes were isolated and the expression of CD40 and CD86, which are dendritic cell maturation markers, was analyzed by flow cytometry analysis.
Further, in order to confirm the effect of the combined treatment on the cross presentation process to the dendritic cells, the present inventors administered Y27632 and doxorubicin to B16F10-Ova-bearing cancer model mice as described above, isolated the tumor-draining lymph nodes, and then cross presentation activity, which is one of functions of dendritic cells, was analyzed via flow cytometry analysis using an antibody capable of detect a cancer antigen (H-2K^b-Ova) capable of activating T cells, through flow cytometry analysis using an antibody (H-2K^b monoclonal antibody, Invitrogen, USA).
The present inventors then investigated the effect of the combination of the drugs on the maturation process of dendritic cells. Specifically, the tumor-draining lymph nodes were isolated after administration of Y27632 and/or cisplatin in the B16F10-Ova-bearing cancer model, and the expression level of CD40 and CD86, the dendritic cell maturation markers, was analyzed by flow cytometry. As shown in FIG. 19C and 19D, there was no influence on the maturation of dendritic cells when Y27632 alone, cisplatin alone, or the combination of the two were administered (FIGS. 19C and 19D). […]

[3] = test system: bone marrow-derived dendritic cells (BMDC); experiment: Cross presentation of H-2Kb-Ova by BMDCs in vitro; assay type: cell-based, mice; details: Y27632 30 μM, 1 hour on BMDCs; cancer cells doxorubicin treated or untreated
Protocol: Furthermore, the inventors investigated whether the cross presentation of dendritic cells was promoted by the combination treatment of doxorubicin and Y27632. To this end, the present inventors used 30 μM of Y27632 to pretreat bone marrow-derived dendritic cells (BMDC) stained with CellTracker CMFDA (Thermo Fisher Scientific, USA) for 1 hour, followed by treatment with doxorubicin treated B16F10-Ova cells or doxorubicin untreated B16F10-Ova cells. After the co-culture, floating cancer cells were removed by withdrawing supernatant. Cross presentation activity, which is one of functions of dendritic cells, was analyzed via flow cytometry analysis using an antibody capable of detect a cancer antigen (H-2K^b-Ova) capable of activating T cells, through flow cytometry analysis using an antibody (H-2K^b monoclonal antibody, Invitrogen, USA).

B16F10-Ova = B16F10-Ova tumor model, Y27632 combined with a chemotherapeutic; assay type: in vivo, mice; details: doxorubicin 5 mg/kg, Y27632 10 mg/kg
Protocol: Specifically, tumor suppression was examined by administering 5 mg/kg of doxorubicin and 10 mg/kg of Y27632 alone or in combination to B16F10-Ova-bearing tumor model mice prepared as in Example 2-1. Doxorubicin was administered three times at intervals of 3 days from the 8th day after the injection of cancer cells, and Y27632 was administered at a dose of 10 mg/kg continuously for two consecutive days via intravenous injection followed by a day of rest as a cycle, followed by 3 cycles of 3-day intervals (FIG. 18A). The mice were sacrificed on the 20th day after the injection of cancer cells, the tumor tissue was excised, and ex vivo images were taken and the tumor tissues were weighed. Before the sacrifice of the mice, the tumor volumes over time were calculated as described above using calipers at intervals of 3 days from the 8th day after the injection of the cancer cells.
In order to confirm whether CD8^+ T cells infiltrates into tumor tissues, tumor tissues excised from an experimental animal were sectioned and subjected to fluorescence immunohistochemistry using anti-CD8 antibodies.
First, to determine the cisplatin therapeutic concentration, a B16F10-Ova tumor model was constructed in a nude mouse lacking T cell immunity and then an experiment was conducted to confirm the concentration of cisplatin having an anticancer effect similar to that of doxorubicin at 5 mg/kg. […] Thus, in order to evaluate the therapeutic effect of cisplatin and the ROCK inhibitor Y27632 in the B16F10-Ova-bearing tumor model, 3 mg/kg of cisplatin was administered according to the administration schedule shown in FIG. 18A.

MMTV/Neu mice tumors = experiment: Spontaneous cancer development model; assay type: in vivo; details: anti-CD8 fluorescence immunohistochemistry
Protocol: The survival rate was recorded over up to 100 days. When the size of tumor was over 2,500 mm^3, the animal was euthanized (FIG. 20C).
Specifically, fluorescence immunohistochemical analysis was performed using anti-CD8 antibodies in the cancer tissues after the end of the experiment.
Accordingly, the present inventors investigated whether the combination of the drugs can increase the anti-cancer immunity even in the spontaneous cancer development model. […] After completion of the experiment, the present inventors isolated the spleen cells and treated with peptide against rat-Neu, an antigen expressed in the cancer of the spontaneous cancer development model, and after 48 hours, the culture supernatant was collected and IFN-γ was quantified using an ELISA kit (R&D Systems, Inc, USA).

CT26 cancer cells = experiment: CT26 tumor model; assay type: in vivo, mice; details: fasudil 20 mg/kg; Y27632 10 mg/kg
Protocol: The same procedure as described above was repeated except that CT26 was used instead of the CT26.CL25 colon cancer cell line and fasudil (Selleck Chemicals, USA) at 20 mg/kg of body weight or Y27632 at 10 mg/kg of body weight was administered.

B16F10 cancer cells = experiment: B16F10 tumor model, ripasudil, PDT and anti-PD-L1 antibodies; parameters: species or system C57BL/6 wild-type mice; details: mouse, in vivo
[4] = test system: bone marrow-derived dendritic cells (BMDCs); experiment: Phagocytosis of cancer cells by bone marrow-derived dendritic cells in vitro; assay type: cell-based, mice; details: 30 μM, 1 hour; B16F10; co-cultivated 30 min
[5] = doxorubicin 5 mg/kg, Y27632 10 mg/kg

Question: Cc1ccc2c(c1)C(=O)C1(O)CCN(c3ccccc3)C1=N2 (stereo not drawn) [blebbistatin] was tested. Which “phagocytic action of phagocytic cells against cancer cells (BMDMs)” value ([1]; method of Example 1-1, CT26.CL25 and B16F10-Ova) did it give?
Answer: significantly enhance

Question: And the “phagocytic action of phagocytic cells against cancer cells (BMDCs)” value [2]?
Answer: significantly enhance

Question: How did the “cross-presentation function (H-2Kb-Ova) of dendritic cells” value (dendritic cells; cisplatin study) turn out when N.N.[Cl][Pt][Cl] [cisplatin] was run?
Answer: no effect

Question: What about the “maturation of dendritic cells (CD40 and CD86)” value (dendritic cells; cisplatin study) of the same molecule?
Answer: no influence

Question: Which results are given for COc1cccc2c1C(=O)c1c(O)c3c(c(O)c1C2=O)C[C@@](O)(C(=O)CO)C[C@@H]3O[C@H]1C[C@H](N)[C@H](O)[C@H](C)O1 [doxorubicin]?
Answer: antigenic cross presentation (H-2Kb-Ova) in the dendritic cells (dendritic cells; [5]): did not significantly increase; dendritic cell maturation (expression of CD40 and CD86) (dendritic cells; [5]): no effect; cross presentation (H-2Kb-Ova) of BMDCs co-cultured with B16F10-Ova cells [3]: increased the cross-presentation; complete regression of the tumor (B16F10-Ova): not observed; infiltration of CD8+ T cells into tumor tissues (B16F10-Ova): slight infiltration; CD8+ T cells in tumor tissues (infiltration) (MMTV/Neu mice tumors): some T cell infiltration

Question: With O=S(=O)(c1cccc2cnccc12)N1CCCNCC1 [fasudil] as the molecule, how does the “phagocytosis of BMDMs against cancer cells in immunogenic cell death induced by mitoxantrone” value ([1]; 30 μM, 1 hour, B16F10-Ova treated with 2.5 μM mitoxantrone, compared with control) read?
Answer: significant increase

Question: What about the “growth of cancer (size of the tumor)” value (CT26 cancer cells) of the same molecule?
Answer: inhibited the growth of cancer similarly to Y27632

Question: How did the “phagocytic activity of BMDMs against PDT-treated cancer cells” value ([1]; 30 μM, 1 hour, B16F10, co-cultivated 30 min) turn out when C[C@H]1CNCCCN1S(=O)(=O)c1cccc2cncc(F)c12 [ripasudil] was run?
Answer: significantly increased

Question: And the “CD40 and CD86 on dendritic cells of tumor draining lymph nodes” value (B16F10 cancer cells)?
Answer: No increased expression

Question: What about the “phagocytic activity of BMDCs against PDT-treated cancer cells” value [4] of the same molecule?
Answer: significantly increased
